Test results published in patent US20140271667A1, “Methods and Compositions for Neoadjuvant Therapy” (The Wistar Institute of Anatomy and Biology, priority 2013, published 2014).

System: Rac1 and Cdc42
Experiment: Rac1 and Cdc42-GTP pull-down assays
Assay type: cell-based, human
Conditions: serum-starved A549 cells stimulated with EGF or FBS; Gamitrinib 5 μM
Experimental: The activation of Rho family small GTPases, Rac1 or Cdc42 was examined in pull-down assays using the p21-binding domain (PBD, amino acids 70-117) of the p21-activated kinase-1 (Pak1). Briefly, a pGEX TK-Pak1 PBD cDNA (Addgene, Cat. no. #12217) was purified, transformed into BL21 E. coli competent cells (Stratagene), and expressed as recombinant GST fusion protein after induction with 1 mM IPTG for 4 h at 34° C. Cells were suspended in PBS, pH 7.2, in the presence of protease inhibitors (SIGMA), and broken by sonication in 1% Triton X-100 for 30 min at 4° C. Soluble proteins were isolated by chromatography on glutathione Sepharose 4B (GS4B, GE Healthcare), eluted in 3 consecutive steps in buffer containing 10 mM GSH, 50 mM Tris HCl, pH 8.0, and further desalted using Amicon Ultra 4/10K columns (Millipore), for a total of 3 buffer changes to PBS, pH 7.2. The protein was diluted in glycerol, quantified by absorbance at 280 nm, and stored at −80° C. until use. The activity of each batch of recombinant protein was assessed by incubating aliquots of the cell lysate with non-hydrolyzable GTPγS at 0.1 mM (maximum binding) or 1 mM GDP (negative control) in low Mg2+ buffer at 30° C. followed by pull-down (54). […]

Gamitrinib
activation of Rac1 and Cdc42 (GTP-bound): impaired
